The results in this text go back to paper PMC11083148, “Structure–Activity Relationship Studies on Highly Functionalized Pyrazole Hydrazones and Amides as Antiproliferative and Antioxidant Agents” (International Journal of Molecular Sciences, 2024).

For data set [1], the system named is OVCAR-5. Kind of data set: NCI screening, Ovarian Cancer. Format: cell-based. Particulars: OVCAR-5, Ovarian Cancer; 10 µM. The procedure:
(§1) In addition, 11a and 17 (representative compounds of the acylhydrazone and amide series) were selected by the National Cancer Institute (NCI, Germantown, MD, USA) and tested at a fixed concentration of 10 µM against a panel of fifty-nine different cancer cell lines, including highly metastatic tumors (Table 2).

In data set [2] the test system is SK-OV-3. The experiment in a line: NCI screening, Ovarian Cancer. Particulars: SK-OV-3, Ovarian Cancer; 10 µM. The format is cell-based. The procedure: as §1
For data set [3], the system named is OVCAR-4. The experiment in a line: NCI screening, Ovarian Cancer. Particulars: OVCAR-4, Ovarian Cancer; 10 µM. The format is cell-based. As to the method:
as §1

The subject of data set [4] is NCI/ADR-RES. The experiment in a line: NCI screening, Ovarian Cancer. The format is cell-based. Particulars: 10 µM. As to the method:
as §1

The test system of data set [5] is OVCAR-8. Kind of data set: NCI screening, Ovarian Cancer. Particulars: OVCAR-8, Ovarian Cancer; 10 µM. The format is cell-based. The procedure: as §1
Data set [6] deals with IGROV1. The experiment in a line: NCI screening, Ovarian Cancer. Particulars: 10 µM. Format: cell-based. As to the method:
as §1

Data set [7] concerns washed platelets. The experiment in a line: Platelet aggregation (thrombin-induced, Born's method). The format is cell-based. Particulars: Homo sapiens, 0.1 U/mL thrombin, mean ± SD, read-out: IC50 Aggregation inhibition. The method in brief: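 Washed human platelets (3.0 × 10^8/mL) were preincubated with compound at 37 °C for 3 min. Aggregation was then triggered with 0.1 U/mL thrombin and measured by Born's turbidimetric method, with IC50 values calculated from the response.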

Data set [8] has as its system UACC-257. The experiment in a line: NCI screening, Melanoma. The format is cell-based. To be noted: UACC-257, Melanoma; 10 µM. The procedure:
as §1

For data set [9], the system named is SK-MEL-28. Kind of data set: NCI screening, Melanoma. Format: cell-based. Particulars: SK-MEL-28, Melanoma; 10 µM. As to the method:
as §1

In data set [10] the test system is UACC-62. The experiment in a line: NCI screening, Melanoma. Format: cell-based. Particulars: UACC-62, Melanoma; 10 µM. The procedure:
as §1

The subject of data set [11] is SK-MEL-5. Kind of data set: NCI screening, Melanoma. Particulars: SK-MEL-5, Melanoma; 10 µM. Format: cell-based. The procedure: as §1
The subject of data set [12] is MALME-3M. The experiment in a line: NCI screening, Melanoma. Format: cell-based. To be noted: 10 µM. As to the method:
as §1

Data set [13] relates to SK-MEL-2. Kind of data set: NCI screening, Melanoma. To be noted: SK-MEL-2, Melanoma; 10 µM. Format: cell-based. The procedure: as §1
For data set [14], the system named is BT-549. Kind of data set: NCI screening, Breast Cancer. Format: cell-based. To be noted: BT-549, Breast Cancer; 10 µM. The procedure: as §1
Data set [15] has as its system T-47D. Kind of data set: NCI screening, Breast Cancer. Format: cell-based. Particulars: 10 µM. The procedure: as §1
Data set [16] has as its system MDA-MB-231/ATCC. The experiment in a line: NCI screening, Breast Cancer. Format: cell-based. Particulars: 10 µM. The procedure: as §1
Data set [17] has as its system washed platelets. Kind of data set: ROS assay in platelets (DCFH-DA, thrombin-stimulated). Particulars: Homo sapiens, Platelet, 0.1 U/mL thrombin, mean ± SD, read-out: IC50 ROS production inhibition. The format is cell-based, human. The method in brief:
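Washed human platelets (1.0 × 10^8/mL) in pH 7.4 HEPES buffer were pre-incubated 15 min at 37 °C with compound, then stimulated with 0.1 U/mL thrombin. ROS was read as DCF fluorescence from DCFH-DA by flow cytometry. IC50 comes from three-point concentration-response nonlinear regression versus saline control, mean of six experiments.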

As a reminder, the melting point is the temperature of the solid-liquid transition. By IC50 is commonly meant the concentration at which inhibition is half-maximal. `COc1ccc(/C=N/NC(=O)c2c(N)nn(C)c2Nc2ccccc2)cc1` [11a, (E)-3-amino-N′-(4-methoxybenzylidene)-1-methyl-5-(phenylamino)-1H-pyrazole-4-carbohydrazide]: the melting point fell in the range of 208 to 210 °C. Further, the “Growth Percentage (%)” value in data set [1] is 76.88%. The “Growth Percentage (%)” value in data set [2] is recorded as 49.64%. In data set [3], the “Growth Percentage (%)” value is listed as 87.03%. For the same molecule, the “Growth Percentage (%)” value in data set [4] is given as 32.98%. Besides, the “Growth Percentage (%)” value in data set [5] was 70.80%. Further, the “Growth Percentage (%)” value in [6] came out at 39.64%. The IC50 in [7] amounted to 183 ± 13 µM. Moreover, in data set [8], the “Growth Percentage (%)” value is 56.35%. Further, in data set [9], the “Growth Percentage (%)” value came out at 57.48%. For the same molecule, the “Growth Percentage (%)” value in [10] is reported as 23.72%. The “Growth Percentage (%)” value in data set [11] was found to be 57.21%. The “Growth Percentage (%)” value in data set [12] was found to be 44.75%. In data set [13], the “Growth Percentage (%)” value is reported as 70.70%. The “Growth Percentage (%)” value in data set [14] is listed as 14.04%. The “Growth Percentage (%)” value in [15] is recorded as 42.38%. For the same molecule, the “Growth Percentage (%)” value in [16] is 65.06%. In data set [17], the half-inhibitory concentration (IC50) was 123 ± 12 µM.

Turning to `CCOC(=O)c1c(NC(=O)C2CC2)nn(C)c1Nc1ccccc1` [compound 17, Ethyl 3-(cyclopropanecarboxamido)-1-methyl-5-(phenylamino)-1H-pyrazole-4-carboxylate], the melting point is 144 to 145 °C. Moreover, the “Growth Percentage (%)” value in data set [1] is 99.49%. Besides, the “Growth Percentage (%)” value in data set [2] is reported as 99.73%. For the same molecule, the “Growth Percentage (%)” value in data set [3] is 99.35%. The “Growth Percentage (%)” value in data set [4] is 103.29%. For the same molecule, the “Growth Percentage (%)” value in [5] is given as 101.92%. Besides, the “Growth Percentage (%)” value in [6] turned out to be 100.75%. Also, in [7], the IC50 is 460 µM. In addition, in data set [8], the “Growth Percentage (%)” value is recorded as 99.58%. Also, the “Growth Percentage (%)” value in data set [9] is 107.16%. Further, the “Growth Percentage (%)” value in data set [10] turned out to be 93.55%. Further, the “Growth Percentage (%)” value in data set [11] is reported as 99.45%. Besides, the “Growth Percentage (%)” value in data set [12] stood at 98.67%. Besides, in data set [13], the “Growth Percentage (%)” value came to 100.69%. In data set [14], the “Growth Percentage (%)” value worked out at 118.46%. Besides, in [15], the “Growth Percentage (%)” value turned out to be 93.07%. Further, the “Growth Percentage (%)” value in data set [16] is reported as 100.37%. Besides, the IC50 in [17] is 573 µM.
